Data as given in patent US20230381142A1, “ANTILEISHMANIAL COMPOUNDS, COMPOSITIONS AND USE THEREOF” (TRUSTEES OF BOSTON UNIVERSITY, priority 2022, published 2023).
Converted amounts (≈) assume the structure as drawn.

Key:
human serum albumin = human serum albumin (Homo sapiens, UniProt P02768); test: Human serum albumin (HSA) binding, chromatographic; type: in vitro ADME
Procedure: The percentage of compound bound to human serum albumin was measured using a chromatographic method as described. Briefly, each compound was assayed on an immobilized HSA column and gradient retention times measured, with chromatographic peak detection by UV. Each retention time was then converted to a % HSA bound value using a calibration set of compounds with a known % HSA binding.

[1] = system: L. donovani intracellular amastigotes infecting THP-1 macrophages; test: GSK intramacrophage L. donovani assay (LD AMMAC, inMac; Assay Conditions C); type: cell-based; settings: Leishmania donovani; growth inhibition of L. donovani intracellular amastigotes infecting THP-1 macrophages; read-out: LD AMMAC EC50
Outline: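 EC50 values come from counting amastigotes per infected THP-1 macrophage (AMMAC). Parallel read-outs give percentage of infected cells per well (INFCELL) and a macrophage-number toxicity EC50 (MAC).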

host THP-1 macrophages = test: GSK inMac assay, host cell toxicity readout (LD MAC); type: cell-based, human; settings: Homo sapiens, THP-1, cytotoxicity against host THP-1 macrophages
Outline: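 MAC EC50 reflects THP-1 host cell counts, measured within GSK's inMac L. donovani infection assay that also scores intracellular amastigotes and infected-cell percentage.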

[2] = Kinetic aqueous solubility by CLND; type: physicochemical; settings: aqueous medium (not further specified), kinetic from dmso stock, high-throughput CLND
Procedure: Solubility of compounds using ChemiLuminescent Nitrogen Detection (CLND) was measured as described. Solubility of compounds using Charged Aerosol Detection (CAD) was measured as described. Solubility of solid compounds in Fasted Simulated Intestinal Fluid (FaSSIF) was measured as described.

[3] = Property forecast index (PFI = ChromLogD7.4 + aromatic rings); type: physicochemical
HepG2 cells = test: HepG2 cytotoxicity; type: cell-based; settings: Homo sapiens; toxicity against HepG2 cells
Procedure: Given the literature precedents described above and the apparent narrow tolerance for R^3 substitutions observed in the primary screen compounds, a thorough and methodical assessment was undertaken of tolerated groups at the three points of diversity (R^1/R^2/R^3) for the core. At this stage of the project, all analogues were assessed using a battery of assays performed in-house at GlaxoSmithKline. For antileishmanial activity, GSK's inMac assay was utilized. This assay provides two readouts of compound potency: average number of intracellular amastigotes per infected cell (AMMAC) EC50, percentage of infected cells per well (INFCELL) EC50, as well as a toxicity output derived from the number of host cells (MAC EC50). In addition, compounds were assessed for toxicity against HepG2 cells (HEPG2 EC50). Here, AMMAC EC50 values were focused on for relative potency assessments. […] It should be noted that for all compounds assessed in this project, the measured toxicity against THP-1 macrophages either equaled or exceeded that of HepG2 hepatocytes, therefore the MAC SI is used here as the more conservative estimate of therapeutic index.

[4] = Artificial membrane permeability (AMP); type: in vitro ADME; settings: PAMPA, pH 7.4
Procedure: Passive permeability of compounds via rate of permeation through an artificial phospholipid membrane at pH 7.4 was measured in a high-throughput format, in duplicate. A solution of 1.8% phosphatidylcholine in 1% decane was added to a 96-well Millicell filter plate along with 250 μL of 50 mM phosphate buffer, pH 7.4 on the donor side, and 100 μL of the same buffer solution on the receiver side. The assay plate was shaken for 45 minutes before adding test compounds. Test compounds were then added to the filter plate and then incubated at room temperature with shaking for three hours. The donor and receiver solutions were next transferred to a 384-well plate for analysis by LC/MS.

Sequence of human serum albumin (P02768 25-609): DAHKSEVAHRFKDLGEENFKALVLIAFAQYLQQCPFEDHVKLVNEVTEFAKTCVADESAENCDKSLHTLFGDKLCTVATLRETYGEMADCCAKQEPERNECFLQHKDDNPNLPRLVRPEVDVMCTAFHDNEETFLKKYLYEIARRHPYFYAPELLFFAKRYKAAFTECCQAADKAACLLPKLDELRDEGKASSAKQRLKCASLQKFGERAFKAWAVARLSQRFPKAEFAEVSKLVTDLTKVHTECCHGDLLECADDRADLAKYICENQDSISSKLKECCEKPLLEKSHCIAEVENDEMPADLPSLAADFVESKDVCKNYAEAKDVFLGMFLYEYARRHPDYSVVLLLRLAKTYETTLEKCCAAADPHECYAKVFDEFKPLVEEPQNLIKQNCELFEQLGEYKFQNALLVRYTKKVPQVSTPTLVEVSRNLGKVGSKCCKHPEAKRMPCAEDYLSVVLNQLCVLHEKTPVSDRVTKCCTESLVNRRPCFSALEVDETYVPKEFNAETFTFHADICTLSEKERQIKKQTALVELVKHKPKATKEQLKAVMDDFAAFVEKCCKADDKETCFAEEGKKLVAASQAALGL

Row | Compound | HSA Binding (human serum albumin) [%] | EC50 [1] [µM] | EC50 (host THP-1 macrophages) [µM] | solubility [2] [µM] | PFI [3] | EC50 (HepG2 cells) [µM] | Papp at 3 h [4] [×10⁻⁶ cm/s]
1 | COc1ccc(N2C(=O)c3[nH]nc(CC(C)C)c3C2c2ccccc2Br)cc1 (stereo not shown) [Compound 56] | 97.1 | 0.5 | 25.1 | 12 (≈ 5.28 µg/mL) | 9.2 | 39.8 | 30
2 | COc1ccc(N2C(=O)c3[nH]nc(CC(C)C)c3C2c2ccccc2OC)cc1 (stereo not shown) [Compound 57, 3-isobutyl-4-(2-methoxyphenyl)-5-(4-methoxyphenyl)-4,5-dihydropyrrolo[3,4-c]pyrazol-6(1H)-one] | 95.7 | 0.5 | 25.1 | 57 (≈ 22.3 µg/mL) | 8.6 | 6.3 | 35
3 | COc1ccc(N2C(=O)c3[nH]nc(CC(C)C)c3C2c2cccc(F)c2)cc1 (stereo not shown) [Compound 58] | 96.9 | 5 | 12.6 | 91 (≈ 34.5 µg/mL) | 8.3 | 50.1 | 37
4 | COc1ccc(N2C(=O)c3[nH]nc(CC(C)C)c3C2c2cccc(Cl)c2)cc1 (stereo not shown) [Compound 59] | 96.8 | 7.9 | 39.8 | 19 (≈ 7.52 µg/mL) | 9.0 | 39.8 | 28
5 | COc1ccc(N2C(=O)c3[nH]nc(CC(C)C)c3C2c2cccc(Br)c2)cc1 (stereo not shown) [Compound 60] | 97 | 7.9 | 25.1 | 10 (≈ 4.4 µg/mL) | 9.1 | 39.8 | 37
6 | COc1ccc(N2C(=O)c3[nH]nc(CC(C)C)c3C2c2cccc(OC)c2)cc1 (stereo not shown) [Compound 61] | 95 | 4 | 20 | 63 (≈ 24.7 µg/mL) | 8.4 | 63.1 | 29
7 | COc1ccc(N2C(=O)c3[nH]nc(CC(C)C)c3C2c2cccc(C(F)(F)F)c2)cc1 (stereo not shown) [Compound 62] | 97.8 | 6.3 | 15.8 | 20 (≈ 8.59 µg/mL) | 8.9 | 50.1 | 22
8 | COc1ccc(N2C(=O)c3[nH]nc(CC(C)C)c3C2c2ccc(F)cc2F)cc1 (stereo not shown) [Compound 63] | 96.1 | 2 | 25.1 | 52 (≈ 20.7 µg/mL) | 8.8 | 63.1 | 14
9 | COc1ccc(N2C(=O)c3[nH]nc(CC(C)C)c3C2c2ccc(F)cc2C)cc1 (stereo not shown) [Compound 64, 4-(4-fluoro-2-methylphenyl)-3-isobutyl-5-(4-methoxyphenyl)-4,5-dihydropyrrolo[3,4-c]pyrazol-6(1H)-one] | 97.2 | 0.5 | 25.1 | 43 (≈ 16.9 µg/mL) | 8.8 | 50.1 | 11
10 | COc1ccc(N2C(=O)c3[nH]nc(CC(C)C)c3C2c2ccc(F)c(F)c2)cc1 (stereo not shown) [Compound 65, 4-(3,4-difluorophenyl)-3-isobutyl-5-(4-methoxyphenyl)-4,5-dihydropyrrolo[3,4-c]pyrazol-6(1H)-one] | 96.2 | 5 | 25.1 | 44 (≈ 17.5 µg/mL) | 8.7 | 50.1 | 14
11 | COc1ccc(N2C(=O)c3[nH]nc(CC(C)C)c3C2c2c(Cl)cccc2Cl)cc1 (stereo not shown) [Compound 66] | 97.1 | 1 | 2.5 | 6 (≈ 2.58 µg/mL) | 9.1 | 6.3 | 33
12 | COc1ccc(N2C(=O)c3[nH]nc(CC(C)C)c3C2C2CCN(Cc3ccccc3)CC2)cc1 (stereo not shown) [Compound S1] | 94.8 | 15.8 | 20 | 188 (≈ 86.2 µg/mL) | 9.0 | 63.1 | 29
13 | COc1ccc(N2C(=O)c3[nH]nc(CC(C)C)c3C2c2cccs2)cc1 (stereo not shown) [Compound S2] | 95.9 | 7.9 | > 50 | 8 (≈ 2.94 µg/mL) | 8.2 | > 100 | 30
14 | COc1ccc(N2C(=O)c3[nH]nc(CC(C)C)c3C2c2cncs2)cc1 (stereo not shown) [Compound S4] | 89.3 | 15.8 | > 50 | ≥ 534 | 6.5 | > 100 | 32
15 | COc1ccc(N2C(=O)c3[nH]nc(CC(C)C)c3C2c2nccs2)cc1 (stereo not shown) [Compound S5] | 89.5 | 20 | > 50 | 143 (≈ 52.7 µg/mL) | 7.2 | > 100 | 42
16 | COc1ccc(N2C(=O)c3[nH]nc(CC(C)C)c3C2c2ccncc2)cc1 (stereo not shown) [Compound S6] | 87.9 | > 50 | > 50 | ≥ 432 | 6.3 | > 100 | 23
17 | COc1ccc(N2C(=O)c3[nH]nc(CC(C)C)c3C2c2ccccn2)cc1 (stereo not shown) [Compound S7] | 86.8 | 31.6 | > 50 | ≥ 450 | 7.1 | > 100 | 42
18 | COc1ccc(N2C(=O)c3[nH]nc(CC(C)C)c3C2c2ccncn2)cc1 (stereo not shown) [Compound S8] | 76.8 | > 50 | > 50 | 273 (≈ 99.2 µg/mL) | 6.3 | > 100 | 34
19 | COc1ccc(N2C(=O)c3[nH]nc(CC(C)C)c3C2c2ccnnc2)cc1 (stereo not shown) [Compound S9] | 70.5 | > 50 | > 50 | ≥ 340 | 5.5 | > 100 | 5
